The text below walks through data of patent US8933103B2, “Pyridone derivatives” (Daiichi Sankyo Company, Limited, priority 2012, dated 2015).

Broadly, the pIC50 is the negative decadic logarithm of the IC50, by convention in mol/L.

pIC50: −log10 of the molar value.

This assay deals with T1, AXL (fusion protein of amino acids 464-885 of the intracellular domain of human AXL with glutathione transferase) (Homo sapiens, UniProt P30530).
T1 sequence (P30530 464-885 isoform P30530-2): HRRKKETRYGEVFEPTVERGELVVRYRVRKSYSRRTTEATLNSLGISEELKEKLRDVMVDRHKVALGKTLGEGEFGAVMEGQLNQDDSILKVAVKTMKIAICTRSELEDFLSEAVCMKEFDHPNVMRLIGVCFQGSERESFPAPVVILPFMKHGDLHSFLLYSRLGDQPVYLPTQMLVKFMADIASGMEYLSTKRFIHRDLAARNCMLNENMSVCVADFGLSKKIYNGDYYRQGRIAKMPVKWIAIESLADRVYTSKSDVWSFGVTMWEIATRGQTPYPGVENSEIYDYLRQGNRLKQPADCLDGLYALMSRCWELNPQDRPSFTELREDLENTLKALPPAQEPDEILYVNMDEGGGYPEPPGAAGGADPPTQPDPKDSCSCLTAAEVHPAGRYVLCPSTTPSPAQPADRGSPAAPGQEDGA
The assay can be described thus: Cell-Free Axl Kinase Inhibitory Activity.
Description: Next, the test compound was diluted with DMSO, and 1 μl of this diluted solution was added to each well.
Five microliters of this solution were added to each well to initiate a kinase reaction. The plate was incubated at 28° C. for 1.5 hours, and 40 μl of a termination buffer (100 mM HEPES (pH 7.4), 0.015% Brij-35, 40 mM EDTA, 0.1% Coating Reagent 3) was added to each well to terminate the reaction.
The substrate peptide and the phosphorylated peptide in the reaction solution were separated and quantified by EZ Reader II (Caliper Life Sciences).
IC50 was determined from inhibition data for 12 test compound concentrations by nonlinear regression (four-parameter logistic regression) using the following formula.
Consider `Cn1cc(-c2cnc(N)c(-c3ccc(NC(=O)c4cn(Cc5ccccc5)cc(-c5ccc(F)cc5)c4=O)cc3)c2)cn1` [Example 51, N-{4-[2-Amino-5-(1-methyl-1H-pyrazol-4-yl)pyridin-3-yl]phenyl}-1-benzyl-5-(4-fluorophenyl)-4-oxo-1,4-dihydropyridine-3-carboxamide], for which the negative-log IC50 (pIC50) was 9.00 to 10.00.
In the case of `CC(=O)N1CC=C(c2cnc(N)c(-c3ccc(NC(=O)c4cn(CC(F)(F)F)cc(-c5ccc(F)cc5)c4=O)cc3)c2)CC1` [Example 80, N-[4-(1′-Acetyl-6-amino-1′,2′,3′,6′-tetrahydro-3,4′-bipyridin-5-yl)phenyl]-5-(4-fluorophenyl)-4-oxo-1-(2,2,2-trifluoroethyl)-1,4-dihydropyridine-3-carboxamide], the pIC50 was 9.00 to 10.00.
The result for `CCOCCn1cc(C(=O)Nc2ccc(-c3cc(-c4cnn(C[C@H]5COCCO5)c4)cnc3N)cc2)c(=O)c(-c2ccc(F)cc2)c1` [Example 67, N-[4-(2-Amino-5-{1-[(2S)-1,4-dioxan-2-ylmethyl]-1H-pyrazol-4-yl}pyridin-3-yl)phenyl]-1-(2-ethoxyethyl)-5-(4-fluorophenyl)-4-oxo-1,4-dihydropyridine-3-carboxamide] reads 8.00 to 9.00; that for `Nc1ncc(-c2cnn(C[C@H]3COCCO3)c2)cc1-c1ccc(NC(=O)c2cn(Cc3ccc(F)cc3)cc(C(=O)N3CCC(F)(F)C3)c2=O)cc1` [Example 73, N-[4-(2-Amino-5-{1-[(2S)-1,4-dioxan-2-ylmethyl]-1H-pyrazol-4-yl}pyridin-3-yl)phenyl]-5-[(3,3-difluoropyrrolidin-1-yl)carbonyl]-1-(4-fluorobenzyl)-4-oxo-1,4-dihydropyridine-3-carboxamide], 7.70 to 8.00.
Turning to `Cc1cc(-c2cnc(N)c(-c3ccc(NC(=O)c4cn(CC(F)(F)F)cc(-c5ccc(F)cc5)c4=O)cc3)c2)ccn1` [Example 77, N-[4-(6-Amino-2′-methyl-3,4′-bipyridin-5-yl)phenyl]-5-(4-fluorophenyl)-4-oxo-1-(2,2,2-trifluoroethyl)-1,4-dihydropyridine-3-carboxamide], the pIC50 is 9.00 to 10.00.
The value for `COc1ccnc(N)c1-c1ccc(NC(=O)c2cn(CC(F)(F)F)cc(-c3ccc(F)cc3)c2=O)cc1` [Example 82, N-[4-(2-Amino-4-methoxypyridin-3-yl)phenyl]-5-(4-fluorophenyl)-4-oxo-1-(2,2,2-trifluoroethyl)-1,4-dihydropyridine-3-carboxamide] was 8.00 to 9.00; that for `COc1cn(Cc2ccc(F)cc2)cc(C(=O)Nc2ccc(-c3cc(-c4cnn(C)c4)cnc3N)cc2)c1=O` [Example 59, N-{4-[2-Amino-5-(1-methyl-1H-pyrazol-4-yl)pyridin-3-yl]phenyl}-1-(4-fluorobenzyl)-5-methoxy-4-oxo-1,4-dihydropyridine-3-carboxamide] was 7.70 to 8.00.
The value for `Nc1ncc(-c2cnn(C3CCNCC3)c2)cc1-c1ccc(NC(=O)c2cn(CCF)cc(-c3ccc(F)cc3)c2=O)cc1` [Example 62, N-{4-[2-Amino-5-(1-piperidin-4-yl-1H-pyrazol-4-yl)pyridin-3-yl]phenyl}-1-(2-fluoroethyl)-5-(4-fluorophenyl)-4-oxo-1,4-dihydropyridine-3-carboxamide] was 9.00 to 10.00; that for `CC(O)Cn1cc(-c2cnc(N)c(-c3ccc(NC(=O)c4cn(CCF)cc(-c5ccc(F)cc5)c4=O)cc3)c2)cn1` (racemic) [Example 63, N-(4-{2-Amino-5-[1-(2-hydroxypropyl)-1H-pyrazol-4-yl]pyridin-3-yl}phenyl)-1-(2-fluoroethyl)-5-(4-fluorophenyl)-4-oxo-1,4-dihydropyridine-3-carboxamide] was 8.00 to 9.00.
The result for `COc1cc(-c2cnc(N)c(-c3ccc(NC(=O)c4cn(CC(F)(F)F)cc(-c5ccc(F)cc5)c4=O)cc3)c2)ccc1OC[C@H]1COCCO1` [Example 42, N-[4-(2-Amino-5-{4-[(2R)-1,4-dioxan-2-ylmethoxy]-3-methoxyphenyl}pyridin-3-yl)phenyl]-5-(4-fluorophenyl)-4-oxo-1-(2,2,2-trifluoroethyl)-1,4-dihydropyridine-3-carboxamide] reads 9.00 to 10.00.
As to `CCn1cc(C(=O)Nc2ccc(-c3cc(-c4ccc(OC)c(OC)c4)cnc3N)cc2)c(=O)c(-c2ccc(F)cc2)c1` [Example 3, N-{4-[2-Amino-5-(3,4-dimethoxyphenyl)pyridin-3-yl]phenyl}-1-ethyl-5-(4-fluorophenyl)-4-oxo-1,4-dihydropyridine-3-carboxamide], the negative-log IC50 (pIC50) is 9.00 to 10.00.
The value for `COc1cc(-c2cnc(N)c(-c3ccc(NC(=O)c4cn(CCF)cc(-c5ccccc5)c4=O)cc3)c2)ccc1OCCN1CCCC1` [Example 40, N-(4-{2-Amino-5-[3-methoxy-4-(2-pyrrolidin-1-ylethoxy)phenyl]pyridin-3-yl}phenyl)-1-(2-fluoroethyl)-4-oxo-5-phenyl-1,4-dihydropyridine-3-carboxamide] was 9.00 to 10.00.
The value for `COc1ccc(-c2cnc(N)c(-c3ccc(NC(=O)c4cn(C)cc(-c5ccc(F)cc5)c4=O)cc3)c2)cc1OC` [Example 2, N-{4-[2-Amino-5-(3,4-dimethoxyphenyl)pyridin-3-yl]phenyl}-5-(4-fluorophenyl)-1-methyl-4-oxo-1,4-dihydropyridine-3-carboxamide] was 8.00 to 9.00.
The result for `Nc1ncc(-c2cnn(C[C@H]3COCCO3)c2)cc1-c1ccc(NC(=O)c2cn(CCF)cc(-c3ccc(F)cc3)c2=O)cc1` [Example 65, N-[4-(2-Amino-5-{1-[(2S)-1,4-dioxan-2-ylmethyl]-1H-pyrazol-4-yl}pyridin-3-yl)phenyl]-1-(2-fluoroethyl)-5-(4-fluorophenyl)-4-oxo-1,4-dihydropyridine-3-carboxamide] reads 8.00 to 9.00; that for `COc1ccc(-c2cnc(N)c(-c3ccc(NC(=O)c4cn(Cc5ccc(F)cc5)cc(C(=O)N5CCCC5)c4=O)cc3)c2)cc1OC` [Example 26, N-{4-[2-Amino-5-(3,4-dimethoxyphenyl)pyridin-3-yl]phenyl}-1-(4-fluorobenzyl)-4-oxo-5-(pyrrolidin-1-ylcarbonyl)-1,4-dihydropyridine-3-carboxamide], 9.00 to 10.00; that for `Cn1cc(-c2cnc(N)c(-c3ccc(NC(=O)c4cn(CC(F)F)cc(-c5ccc(F)cc5)c4=O)cc3)c2)cn1` [Example 49, N-{4-[2-Amino-5-(1-methyl-1H-pyrazol-4-yl)pyridin-3-yl]phenyl}-1-(2,2-difluoroethyl)-5-(4-fluorophenyl)-4-oxo-1,4-dihydropyridine-3-carboxamide], 8.00 to 9.00.
In turn, `Cc1cn(Cc2ccc(F)cc2)cc(C(=O)Nc2ccc(-c3cc(-c4cnn(C)c4)cnc3N)cc2)c1=O` [Example 58, N-{4-[2-Amino-5-(1-methyl-1H-pyrazol-4-yl)pyridin-3-yl]phenyl}-1-(4-fluorobenzyl)-5-methyl-4-oxo-1,4-dihydropyridine-3-carboxamide] gave a pIC50 of 8.00 to 9.00.
The value for `COc1ccc(-c2cnc(N)c(-c3ccc(NC(=O)c4cn(Cc5ccc(F)cc5)cc(-c5ccc(F)cc5)c4=O)cc3)c2)cc1OC` [Example 11, N-{4-[2-Amino-5-(3,4-dimethoxyphenyl)pyridin-3-yl]phenyl}-1-(4-fluorobenzyl)-5-(4-fluorophenyl)-4-oxo-1,4-dihydropyridine-3-carboxamide] was 9.00 to 10.00; that for `COc1ncnc(N)c1-c1ccc(NC(=O)c2cn(CC(F)(F)F)cc(-c3ccc(F)cc3)c2=O)cc1` [Example 86, N-[4-(4-Amino-6-methoxypyrimidin-5-yl)phenyl]-5-(4-fluorophenyl)-4-oxo-1-(2,2,2-trifluoroethyl)-1,4-dihydropyridine-3-carboxamide] was 8.00 to 9.00.
The value for `Cn1cc(-c2cnc(N)c(-c3ccc(NC(=O)c4cn(CCF)cc(-c5ccccc5)c4=O)cc3)c2)cn1` [Example 53, N-{4-[2-Amino-5-(1-methyl-1H-pyrazol-4-yl)pyridin-3-yl]phenyl}-1-(2-fluoroethyl)-4-oxo-5-phenyl-1,4-dihydropyridine-3-carboxamide] was 8.00 to 9.00.
The value for `COc1ccc(-c2cnc(N)c(-c3ccc(NC(=O)c4cn(CC(=O)N(C)C)cc(-c5ccc(F)cc5)c4=O)cc3)c2)cc1OC` [Example 16, N-{4-[2-Amino-5-(3,4-dimethoxyphenyl)pyridin-3-yl]phenyl}-1-[2-(dimethylamino)-2-oxoethyl]-5-(4-fluorophenyl)-4-oxo-1,4-dihydropyridine-3-carboxamide] was 8.00 to 9.00.
As for `COc1ccc(-c2cnc(N)c(-c3ccc(NC(=O)c4cn(CC(F)(F)F)cc(-c5ccc(F)cc5)c4=O)cc3)c2)cc1O` [Example 88, N-{4-[2-Amino-5-(3-hydroxy-4-methoxyphenyl)pyridin-3-yl]phenyl}-5-(4-fluorophenyl)-4-oxo-1-(2,2,2-trifluoroethyl)-1,4-dihydropyridine-3-carboxamide], the pIC50 is 8.00 to 9.00.
The value for `CN(C)C(=O)c1cn(Cc2ccc(F)cc2)cc(C(=O)Nc2ccc(-c3cc(-c4cnn(C)c4)cnc3N)cc2)c1=O` [Example 60, N′-{4-[2-Amino-5-(1-methyl-1H-pyrazol-4-yl)pyridin-3-yl]phenyl}-1-(4-fluorobenzyl)-N,N-dimethyl-4-oxo-1,4-dihydropyridine-3,5-dicarboxamide] was 8.00 to 9.00; that for `COc1ccc(-c2cnc(N)c(-c3ccc(NC(=O)c4cn(Cc5ccccn5)cc(-c5ccc(F)cc5)c4=O)cc3)c2)cc1OC` [Example 12, N-{4-[2-Amino-5-(3,4-dimethoxyphenyl)pyridin-3-yl]phenyl}-5-(4-fluorophenyl)-4-oxo-1-(pyridin-2-ylmethyl)-1,4-dihydropyridine-3-carboxamide] was 9.00 to 10.00.
